One assay has as its target T1, PDGF-Ra (Homo sapiens, UniProt P16234).
T1 construct: host or cells: G-292 human osteosarcoma cells
Put plainly: Inhibitory activity against PDGF-Ra phosphorylation by PDGF-AA stimulation using G292. The assay is classed as cell-based. As to conditions: Pharmacological Test Example 1; > means inhibition at indicated concentration not more than 50%, < and << not less than 50%; read-out: PDGF (E) IC50. The procedure, abridged:
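Cells seeded in low-serum medium are exposed to test compound for one hour, then PDGF-AA (50 ng/ml) triggers receptor phosphorylation for 5 min at 37 °C. Phospho-PDGF-Ra in solubilized cells is quantified by anti-phosphotyrosine capture ELISA at 450 nm.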

The next assay addresses T2, c-kit (Homo sapiens, UniProt P10721).
T2 construct: MO7e (human megakaryocytic leukemia cell line) which had been arrested for 20 hr; endogenous in cells; host or cells: MO7e human megakaryocytic leukemia cell line
Put plainly: Inhibitory activity against c-kit autophosphorylation (MO7e cells, h-SCF). The assay is classed as cell-based. As to conditions: for IC50: MO7e cells, h-SCF 50 ng/ml, read-out: c-kit IC50; for inhibition at 1 µM: Mo7e, figure in parentheses in −( ), at 1000 nM. In short, it runs like this: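 MO7e human megakaryocytic leukemia cells, arrested 20 hr, treated with compound 1 hr, then stimulated with 50 ng/ml h-SCF for 5 min and lysed. Lysates captured on immobilized anti-phosphotyrosine antibody, detected with anti-c-kit primary and HRP secondary antibody; absorbance at 450 nm.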

T1 sequence (P16234 24-1089): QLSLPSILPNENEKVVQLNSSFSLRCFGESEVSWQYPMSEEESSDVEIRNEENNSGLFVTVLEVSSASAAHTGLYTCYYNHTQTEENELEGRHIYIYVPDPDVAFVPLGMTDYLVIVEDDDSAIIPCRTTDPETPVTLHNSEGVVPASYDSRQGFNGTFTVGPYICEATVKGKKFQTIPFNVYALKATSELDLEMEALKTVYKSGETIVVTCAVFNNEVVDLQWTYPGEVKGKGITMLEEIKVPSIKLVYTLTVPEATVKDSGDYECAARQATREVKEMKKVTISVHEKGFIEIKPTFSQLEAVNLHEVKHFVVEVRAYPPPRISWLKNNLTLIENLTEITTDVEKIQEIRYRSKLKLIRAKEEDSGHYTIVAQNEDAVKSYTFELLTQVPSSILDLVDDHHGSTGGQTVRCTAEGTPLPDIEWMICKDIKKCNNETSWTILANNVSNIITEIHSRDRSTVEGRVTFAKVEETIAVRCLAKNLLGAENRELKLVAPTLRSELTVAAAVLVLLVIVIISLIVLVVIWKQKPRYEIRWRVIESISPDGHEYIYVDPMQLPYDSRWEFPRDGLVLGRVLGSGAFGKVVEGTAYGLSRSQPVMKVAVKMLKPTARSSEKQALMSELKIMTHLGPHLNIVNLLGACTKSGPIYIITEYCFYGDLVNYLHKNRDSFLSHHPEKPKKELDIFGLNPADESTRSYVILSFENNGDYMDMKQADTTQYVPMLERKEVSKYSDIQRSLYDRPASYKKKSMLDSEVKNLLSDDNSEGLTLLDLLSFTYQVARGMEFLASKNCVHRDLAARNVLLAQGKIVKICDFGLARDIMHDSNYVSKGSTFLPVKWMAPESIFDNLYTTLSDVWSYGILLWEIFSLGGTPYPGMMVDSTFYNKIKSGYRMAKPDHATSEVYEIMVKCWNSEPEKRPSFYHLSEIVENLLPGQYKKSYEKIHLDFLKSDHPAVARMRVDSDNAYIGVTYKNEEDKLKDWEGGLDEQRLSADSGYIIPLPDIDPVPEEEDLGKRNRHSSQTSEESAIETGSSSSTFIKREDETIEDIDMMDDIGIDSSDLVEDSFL
T2 sequence (P10721 26-976): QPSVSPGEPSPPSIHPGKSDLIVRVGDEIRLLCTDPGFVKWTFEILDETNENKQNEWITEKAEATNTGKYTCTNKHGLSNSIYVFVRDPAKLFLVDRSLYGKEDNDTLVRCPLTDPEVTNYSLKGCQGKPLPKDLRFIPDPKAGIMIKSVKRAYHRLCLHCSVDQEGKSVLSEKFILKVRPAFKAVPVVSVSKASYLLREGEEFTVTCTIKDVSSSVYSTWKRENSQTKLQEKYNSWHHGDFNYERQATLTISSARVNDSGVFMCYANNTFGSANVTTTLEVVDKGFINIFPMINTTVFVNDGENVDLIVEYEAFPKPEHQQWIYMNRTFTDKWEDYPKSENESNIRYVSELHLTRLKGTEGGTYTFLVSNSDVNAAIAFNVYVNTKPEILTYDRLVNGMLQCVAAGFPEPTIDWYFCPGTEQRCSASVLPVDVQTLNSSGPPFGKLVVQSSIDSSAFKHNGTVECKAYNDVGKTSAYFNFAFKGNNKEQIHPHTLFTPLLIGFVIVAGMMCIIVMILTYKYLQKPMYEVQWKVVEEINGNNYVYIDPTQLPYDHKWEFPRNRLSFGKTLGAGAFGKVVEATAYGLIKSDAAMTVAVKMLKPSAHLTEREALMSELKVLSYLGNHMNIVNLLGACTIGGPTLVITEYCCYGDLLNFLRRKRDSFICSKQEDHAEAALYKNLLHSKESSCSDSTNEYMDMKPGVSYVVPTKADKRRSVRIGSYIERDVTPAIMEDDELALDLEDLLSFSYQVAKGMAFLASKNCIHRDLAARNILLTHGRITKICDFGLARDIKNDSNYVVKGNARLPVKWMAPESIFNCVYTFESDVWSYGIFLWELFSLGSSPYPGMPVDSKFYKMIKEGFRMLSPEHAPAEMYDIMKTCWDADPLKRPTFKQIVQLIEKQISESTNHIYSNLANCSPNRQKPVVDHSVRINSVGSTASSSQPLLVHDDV

The IC50 is the concentration that gives 50% inhibition. For the compound `COc1cc2ncnc(Oc3ccc(NC(=O)OCCCSc4ccc(Cl)cc4C)c(Cl)c3)c2cc1OC` [Example 81, 3-[(4-Chloro-2-methylphenyl)sulfanyl]propyl N-{2-chloro-4-[(6,7-dimethoxy-4-quinazolinyl)oxy]phenyl}carbamate], the concentration for half-maximal inhibition (IC50) on PDGF-Ra came out at 12 nM; on c-kit it was 408 nM.

As to `COc1cc2nccc(Oc3ccc(NC(=O)OCCc4cccc(C(F)(F)F)c4)cc3)c2cc1OC` [Example 82, 3-(Trifluoromethyl)phenethyl N-{4-[(6,7-dimethoxy-4-quinolyl)oxy]phenyl}carbamate], the IC50 at PDGF-Ra is 10 nM; on c-kit it was 176 nM.

For the compound `COc1cc2nccc(Oc3ccc(NC(=O)OCCc4cccc(C(F)(F)F)c4)c(C)c3C)c2cc1OC` [Example 83, 3-(Trifluoromethyl)phenethyl N-{4-[(6,7-dimethoxy-4-quinolyl)oxy]-2,3-dimethylphenyl]carbamate], the results for the half-maximal inhibitory concentration (IC50) on PDGF-Ra and at c-kit were 16 nM and 253 nM, respectively.

As for `COc1cc2nccc(Oc3cc(C)c(NC(=O)OCCc4cccc(C(F)(F)F)c4)cc3C)c2cc1OC` [Example 84, 3-(Trifluoromethyl)phenethyl N-{4-[(6,7-dimethoxy-4-quinolyl)oxy]-2,5-dimethylphenyl}carbamate], the IC50 on PDGF-Ra stood at 27 nM; on c-kit, 399 nM.

With `COc1cc2ncnc(Oc3ccc(NC(=O)OCCc4cccc(C(F)(F)F)c4)cc3)c2cc1OC` [Example 85, 3-(Trifluoromethyl)phenethyl N-{4-[(6,7-dimethoxy-4-quinazolinyl)oxy]phenyl}carbamate], the IC50 is < 10 nM at PDGF-Ra and 163 nM on c-kit.

For the compound `COc1cc2ncnc(Oc3ccc(NC(=O)OCCc4cccc(C(F)(F)F)c4)c(Cl)c3)c2cc1OC` [Example 86], the figures for the 50% inhibitory concentration (IC50) at PDGF-Ra and on c-kit were 13 nM and 842 nM, respectively.

`COc1cc2nccc(Oc3ccc(NC(=O)OC(C)c4cccc(C(F)(F)F)c4)cc3)c2cc1OC` (stereo not drawn) [Example 87, 1-[3-(Trifluoromethyl)phenyl]ethyl N-{4-[(6,7-dimethoxy-4-quinolyl)oxy]phenyl}carbamate]: the IC50 was < 10 nM on PDGF-Ra and 607 nM on c-kit.

As usually defined, the inhibition is the drop in the measured response relative to a control, in per cent. On to `COc1cc2nccc(Oc3ccc(NC(=O)OC(C)c4cccc(C(F)(F)F)c4)c(C)c3C)c2cc1OC` (stereo not drawn) [Example 88, 1-[3-(Trifluoromethyl)phenyl]ethyl N-{4-[(6,7-dimethoxy-4-quinolyl)oxy]-2,3-dimethylphenyl}carbamate], for which the IC50 at PDGF-Ra was determined as 19 nM. Moreover, the inhibition at 1 µM at c-kit was determined as 45%.

`COc1cc2nccc(Oc3cc(C)c(NC(=O)OC(C)c4cccc(C(F)(F)F)c4)cc3C)c2cc1OC` (stereo not drawn) [Example 89, 1-[3-(Trifluoromethyl)phenyl]ethyl N-{4-[(6,7-dimethoxy-4-quinolyl)oxy]-2,5-dimethylphenyl}carbamate]: the concentration for half-maximal inhibition (IC50) on PDGF-Ra amounted to 14 nM. The inhibition at 1 µM on c-kit worked out at 35%.

Take `COc1cc2ncnc(Oc3ccc(NC(=O)OC(C)c4cccc(C(F)(F)F)c4)cc3)c2cc1OC` (stereo not drawn) [Example 90, 1-[3-(Trifluoromethyl)phenyl]ethyl N-{4-[(6,7-dimethoxy-4-quinazolinyl)oxy]phenyl}carbamate]: the IC50 was < 10 nM on PDGF-Ra and 621 nM on c-kit.

In the case of `COc1cc2ncnc(Oc3ccc(NC(=O)OC(C)c4cccc(C(F)(F)F)c4)c(Cl)c3)c2cc1OC` (stereo not drawn) [Example 91, 1-[3-(Trifluoromethyl)phenyl]ethyl N-{2-chloro-4-[(6,7-dimethoxy-4-quinazolinyl)oxy]phenyl}carbamate], the concentration for half-maximal inhibition (IC50) at PDGF-Ra was determined as 14 nM. On c-kit, the inhibition at 1 µM was found to be 20%.

`COc1cc2nccc(Oc3ccc(NC(=O)OC(C)c4cc(F)c(F)cc4F)cc3)c2cc1OC` (stereo not drawn) [Example 92, 1-(2,4,5-Trifluorophenyl)ethyl N-{4-[(6 7-dimethoxy-4-quinolyl)oxy]phenyl}carbamate]: the IC50 on PDGF-Ra is < 10 nM; on c-kit it was 677 nM.

In the case of `COc1cc2nccc(Oc3ccc(NC(=O)OC(C)c4cc(F)c(F)cc4F)c(C)c3C)c2cc1OC` (stereo not drawn) [Example 93, 1-(2,4,5-Trifluorophenyl)ethyl N-{4-[(6,7-dimethoxy-4-quinolyl)oxy]-2,3-dimethylphenyl}carbamate], the half-inhibitory concentration (IC50) was found to be 17 nM at PDGF-Ra and 601 nM at c-kit.

For `COc1cc2nccc(Oc3cc(C)c(NC(=O)OC(C)c4cc(F)c(F)cc4F)cc3C)c2cc1OC` (stereo not drawn) [Example 94, 1-(2,4,5-Trifluorophenyl)ethyl N-{4-[(6,7-dimethoxy-4-quinolyl)oxy]-2,5-dimethylphenyl}carbamate], the IC50 on PDGF-Ra was 31 nM. Moreover, the inhibition at 1 µM at c-kit is 31%.

As to `COc1cc2ncnc(Oc3ccc(NC(=O)OC(C)c4cc(F)c(F)cc4F)cc3)c2cc1OC` (stereo not drawn) [Example 95, 1-(2,4,5-Trifluorophenyl)ethyl N-{4-[(6,7-dimethoxy-4-quinazolinyl)oxy]phenyl}carbamate], the half-inhibitory concentration (IC50) came to 16 nM on PDGF-Ra and 962 nM at c-kit.

`COc1cc2ncnc(Oc3ccc(NC(=O)OC(C)c4cc(F)c(F)cc4F)c(Cl)c3)c2cc1OC` (stereo not drawn) [Example 96, 1-(2,4,5-Trifluorophenyl)ethyl N-{2-chloro-4-[(6,7-dimethoxy-4-quinazolinyl)oxy]phenyl}carbamate]: the IC50 at PDGF-Ra amounted to 38 nM. Further, the inhibition at 1 µM at c-kit stood at 13%.

With `COc1cc2nccc(Oc3ccc(NC(=O)OC(C)c4cccc(F)c4)cc3)c2cc1OC` (stereo not drawn) [Example 97, 1-(3-Fluorophenyl)ethyl N-{4-[(6,7-dimethoxy-4-quinolyl)oxy]phenyl}carbamate], the IC50 on PDGF-Ra was < 10 nM; at c-kit, 254 nM.

Turning to `COc1cc2nccc(Oc3ccc(NC(=O)OC(C)c4cccc(F)c4)c(C)c3C)c2cc1OC` (stereo not drawn) [Example 98, 1-(3-Fluorophenyl)ethyl N-{4-[(6,7-dimethoxy-4-quinolyl)oxy]-2,3-dimethylphenyl}carbamate], the IC50 on PDGF-Ra is < 10 nM; at c-kit, 152 nM.

On to `COc1cc2nccc(Oc3cc(C)c(NC(=O)OC(C)c4cccc(F)c4)cc3C)c2cc1OC` (stereo not drawn) [Example 99, 1-(3-Fluorophenyl)ethyl N-{4-[(6,7-dimethoxy-4-quinolyl)oxy]-2,5-dimethylphenyl}carbamate], for which the half-inhibitory concentration (IC50) on PDGF-Ra was determined as 21 nM; at c-kit it was 394 nM.

Consider `COc1cc2ncnc(Oc3ccc(NC(=O)OC(C)c4cccc(F)c4)cc3)c2cc1OC` (stereo not drawn) [Example 100, 1-(3-Fluorophenyl)ethyl N-{4-[(6,7-dimethoxy-4-quinazolinyl)oxy]phenyl}carbamate], for which the IC50 was found to be 14 nM on PDGF-Ra and 815 nM at c-kit.

For the compound `COc1cc2ncnc(Oc3ccc(NC(=O)OC(C)c4cccc(F)c4)c(Cl)c3)c2cc1OC` (stereo not drawn) [Example 101, 1-(3-Fluorophenyl)ethyl N-{2-chloro-4-[(6,7-dimethoxy-4-quinazolinyl)oxy]phenyl}carbamate], the IC50 on PDGF-Ra was 12 nM. The inhibition at 1 µM at c-kit turned out to be 27%.

For `COc1cc2nccc(Oc3ccc(NC(=O)OC(C)c4ccc(F)cc4)cc3)c2cc1OC` (stereo not drawn) [Example 102, 1-(4-Fluorophenyl)ethyl N-{4-[(6,7-dimethoxy-4-quinolyl)oxy]phenyl}carbamate], the half-maximal inhibitory concentration (IC50) on PDGF-Ra is < 10 nM; at c-kit, 217 nM.

Consider `COc1cc2nccc(Oc3ccc(NC(=O)OC(C)c4ccc(F)cc4)c(C)c3C)c2cc1OC` (stereo not drawn) [Example 103, 1-(4-Fluorophenyl)ethyl N-{4-[(6,7-dimethoxy-4-quinolyl)oxy]-2,3-dimethylphenyl}carbamate], for which the IC50 at PDGF-Ra came to 15 nM; on c-kit, 200 nM.

`COc1cc2nccc(Oc3cc(C)c(NC(=O)OC(C)c4ccc(F)cc4)cc3C)c2cc1OC` (stereo not drawn) [Example 104, 1-(4-Fluorophenyl)ethyl N-{4-[(6,7-dimethoxy-4-quinolyl)oxy]-2,5-dimethylphenyl}carbamate]: the IC50 on PDGF-Ra came out at 25 nM; at c-kit it was 590 nM.

Turning to `COc1cc2ncnc(Oc3ccc(NC(=O)OC(C)c4ccc(F)cc4)cc3)c2cc1OC` (stereo not drawn) [Example 105, 1-(4-Fluorophenyl)ethyl N-{4-[(6,7-dimethoxy-4-quinazolinyl)oxy]phenyl}carbamate], the figures for the IC50 on PDGF-Ra and at c-kit were < 10 nM and 252 nM, respectively.

With `COc1cc2nccc(Oc3ccc(NC(=O)OC(C)c4ccccc4Br)cc3)c2cc1OC` (stereo not drawn) [Example 112, 1-(2-Bromophenyl)ethyl N-{4-[(6,7-dimethoxy-4-quinolyl)oxy]phenyl}carbamate], the IC50 on PDGF-Ra came to 16 nM; on c-kit, 214 nM.

As to `COc1cc2nccc(Oc3ccc(NC(=O)OC(C)c4ccccc4Br)c(C)c3C)c2cc1OC` (stereo not drawn) [Example 113, 1-(2-Bromophenyl)ethyl N-{4-[(6,7-dimethoxy-4-quinolyl)oxy]-2,3-dimethylphenyl}carbamate], the IC50 at PDGF-Ra was found to be 18 nM; at c-kit, 402 nM.

Regarding `COc1cc2nccc(Oc3cc(C)c(NC(=O)OC(C)c4ccccc4Br)cc3C)c2cc1OC` (stereo not drawn) [Example 114, 1-(2-Bromophenyl)ethyl N-{4-[(6,7-dimethoxy-4-quinolyl)oxy]-2,5-dimethylphenyl}carbamate], the figures for the IC50 on PDGF-Ra and at c-kit were 65 nM and 602 nM, respectively.

Turning to `COc1cc2ncnc(Oc3ccc(NC(=O)OC(C)c4ccccc4Br)cc3)c2cc1OC` (stereo not drawn) [Example 115, 1-(2-Bromophenyl)ethyl N-{4-[(6,7-dimethoxy-4-quinazolinyl)oxy]phenyl}carbamate], the 50% inhibitory concentration (IC50) was < 10 nM on PDGF-Ra and 387 nM at c-kit.

As for `COc1cc2nccc(Oc3ccc(NC(=O)OC(C)c4cccc(Br)c4)cc3)c2cc1OC` (stereo not drawn) [Example 117, 1-(3-Bromophenyl)ethyl N-{4-[(6,7-dimethoxy-4-quinolyl)oxy]phenyl}carbamate], the 50% inhibitory concentration (IC50) on PDGF-Ra was determined as 26 nM; on c-kit, 759 nM.
